Consider 19 molecules from article PMC7128415 (Journal of Clinical Virology, 2004).

In series [1] the test system is HIV-1. As to conditions: cited from earlier work.
The subject of series [2] is SARS coronavirus.
For series [3] the following is noted: human, in vivo, po.
The nature of series [4]: in vitro. As to conditions: rhesus monkey.
Series [5] has as its system SARS coronavirus. As to the kind of experiment: microbe, parasite or virus in culture. The following applies: Severe acute respiratory syndrome coronavirus, FRhK-4, 48 h, read-out: EC50 at 48 h.
In series [6] the test system is HIV-1 reverse transcriptase. The following applies: cited from earlier work.
Series [7] relates to SARS coronavirus. The format is cell-based.
The conditions of series [8]: in vivo, cited from earlier work.
In series [9] the test system is SARS coronavirus. Put plainly: microbe, parasite or virus in culture. It is filed as cell-based. The following applies: Severe acute respiratory syndrome coronavirus, Vero, read-out: EC50 (plaque reduction assay). (In general: In a plaque reduction assay, fewer plaques than in the control indicate reduced infectivity or spread.)
For series [10], the system named is rhinovirus, coronavirus, and respiratory syncytial virus. The following applies: in vivo; cited from earlier work.
Series [11] deals with rhinovirus. As to conditions: in vivo; cited from earlier work.
Series [12] relates to genital herpes. The following applies: in vivo; cited from earlier work.
Series [13] concerns CMV. As to conditions: human, in vivo; cited from earlier work.
In series [14] the test system is various viruses. As to conditions: cited from earlier work.
Series [15] concerns SARS-associated virus. The following applies: cited from earlier work.

Values after ≈ are worked out from the molar mass of the structure shown. Read-outs that look alike come from different tables or passages of the source.

What is called EC50 is the concentration that produces a half-maximal response. For `O=C(O)[C@H]1O[C@@H](Oc2cc3oc(-c4ccccc4)cc(=O)c3c(O)c2O)[C@H](O)[C@@H](O)[C@@H]1O` [Baicalin, baicalin], in series [1], the Antiviral effect result is recorded as “Inhibition of HIV-1” and the “inhibition of HIV-1” value is reported as “shown to inhibit HIV-1”. In addition, in series [2], the “EC50 at 48 h” value was 12.5 µg/mL (≈ 28 µM), the “SI = CC50/EC50 at 48 h” value is more than 4 to 8, the antiviral activities result is “detectable antiviral activities” and the antiviral activity entry is listed as “showed antiviral activity”. Besides, the “inhibitory activities by neutralization tests” value in series [2] was “detectable inhibitory activities”. In [3], this molecule came in with a serum concentration of 470 ng/mL. Further, in series [4], the CC50 is more than 100 µg/mL. Besides, the EC50 in [5] was 12.5 to 25 µg/mL (≈ 28 to 56 µM). The “inhibition of HIV-1 reverse transcriptase” value in series [6] was “known to inhibit HIV-1 reverse transcriptase”. Besides, the “activity in Vero-E6 cell line compared with fRhK-4” value (from here on “activity … compared with fRhK-4”) in series [7] is reported as “less active”. For the same molecule, the “Serum level (after oral administration), Cmax” value in series [8] (human, po) was “Cmax = 60 ng/ml (189.8 mg per person, in human). The amount (i.e., 189.8 mg per person) used for the experiment is very low”. In addition, the “Half life (in humans)” value in series [8] (human) was “∼3 h”. Besides, the “Serum level (after intravenous administration), Cmax” value in series [8] is reported as “Cmax = 74 μg/ml (360 mg per person)”. Further, the EC50 in series [9] came to 11 µg/mL (≈ 24.6 µM).

For the molecule `Cc1cn([C@H]2C=C[C@@H](CO)O2)c(=O)[nH]c1=O` [stavudine], the “inhibitory activities in initial screening” value in [2] was “did not reveal inhibitory activities”.

For the molecule `CC(N)C12CC3CC(CC(C3)C1)C2` (stereo not shown) [Rimantadine, rimantadine], in series [2], the “EC50 at 48 h” value came to 16 µg/mL (≈ 89.2 µM), the antiviral activities result is on record as “detectable antiviral activities”, the antiviral activity result is “showed antiviral activity” and the “inhibitory activities by neutralization tests” value is “detectable inhibitory activities”. The same molecule came in with a CC50 in series [4] of 64 µg/mL (≈ 357 µM). The EC50 in series [5] fell in the range of 8 to 16 µg/mL (≈ 44.6 to 89.2 µM). For the same molecule, the “activity … compared with fRhK-4” value in [7] is reported as “more active”. Moreover, in [9], the half-maximal effective concentration (EC50) turned out to be 7 µg/mL (≈ 39 µM).

Turning to `NC(=O)c1ncn([C@@H]2O[C@H](CO)[C@@H](O)[C@H]2O)n1` [Ribavirin, ribavirin], in series [2], the “SI = CC50/EC50 at 48 h” value is 5 to >80, the antiviral activities entry was “detectable antiviral activities”, the antiviral activity entry is given as “showed antiviral activity” and the “inhibitory activities by neutralization tests” value is on record as “detectable inhibitory activities”. The molecule further displayed a CC50 in [4] of more than 1000 µg/mL. In addition, the “activity … compared with fRhK-4” value in series [7] is recorded as “less active”. In addition, the concentration for a half-maximal effect (EC50) in series [9] turned out to be 50 µg/mL (≈ 205 µM).

For `Cc1cn([C@H]2C[C@H](N=[N+]=[N-])[C@@H](CO)O2)c(=O)[nH]c1=O` [zidovudine], the “inhibitory activities in initial screening” value in series [2] was “did not reveal inhibitory activities”.

On to `Nc1ccn(C[C@@H](CO)OCP(=O)(O)O)c(=O)n1` [cidofovir], for which the “inhibitory activities in initial screening” value in [2] is “did not reveal inhibitory activities”.

For interferon-alpha, the “protection against experimental human infection” value in [10] is recorded as “protect”. In addition, the “protection against rhinovirus-induced common cold” value in series [11] is “protective”. The “reduction in symptoms or lesion duration of genital herpes” value in series [12] is “did not produce a consistent reduction”. Moreover, the “preventing CMV infections or treating CMV pneumonia” value in series [13] is listed as “not effective”.

In the case of `Cc1ccnc2c1NC(=O)c1cccnc1N2C1CC1` [nevirapine], in series [2], the “inhibitory activities in initial screening” value is listed as “did not reveal inhibitory activities”.

Consider `O=C(/C=C/c1ccc(O)c(O)c1)O[C@@H]1C[C@](O)(C(=O)O)C[C@@H](O)[C@H]1O` [Chlorogenic acid, chlorogenic acid], for which the “inhibitory activities in initial screening” value in series [2] is “not detectable”. The Antiviral effect entry in series [14] is reported as “Inhibition of various viruses”. In series [8], the “Serum level (after intravenous administration), Cmax” value was “Cmax = 34 μg/ml (24 mg per person)”.

Take `CC1(C)[C@@H](O[C@H]2O[C@H](C(=O)O)[C@@H](O)[C@H](O)[C@H]2O[C@@H]2O[C@H](C(=O)O)[C@@H](O)[C@H](O)[C@H]2O)CC[C@]2(C)[C@H]3C(=O)C=C4[C@@H]5C[C@@](C)(C(=O)O)CC[C@]5(C)CC[C@@]4(C)[C@]3(C)CC[C@@H]12` [Glycyrrhizin, glycyrrhizin]: in [2], the antiviral activity entry is recorded as “showed antiviral activity” and the “inhibitory activities in initial screening” value is “not detectable”. Moreover, in series [15], the Antiviral effect entry is recorded as “Inhibition of SARS-associated virus”, the “activity in Vero-E6 cell lines” value was “reported to be active” and the “antiviral activity against SARS coronavirus” value is recorded as “significant antiviral activity”. The CC50 in [4] was more than 400 µg/mL. Moreover, in series [5], the 50% effective concentration (EC50) is more than 400 µg/mL. Further, in series [7], the “activity … compared with fRhK-4” value is reported as “more active”. Also, the “Half life (in humans)” value in series [8] (human) is reported as “∼10 h”. In [8], the “Serum level (after intravenous administration), Cmax” value is reported as “Cmax = 80 μg/ml (200 mg per person)”.

In the case of `Nc1nc2c(ncn2COCCO)c(=O)[nH]1` [acyclovir], in series [2], the “inhibitory activities in initial screening” value was “did not reveal inhibitory activities”.

On to `O=C(O)P(=O)(O)O` [foscarnet], for which the “inhibitory activities in initial screening” value in series [2] is on record as “did not reveal inhibitory activities”.

Take `Nc1nc(O)c2ncn(COC(CO)CO)c2n1` [ganciclovir]: the “inhibitory activities in initial screening” value in series [2] is given as “did not reveal inhibitory activities”.

Regarding `Nc1nc(NC2CC2)c2ncn([C@H]3C=C[C@@H](CO)C3)c2n1` [abacavir], in [2], the “inhibitory activities in initial screening” value was “did not reveal inhibitory activities”.

For the molecule `CC(C)c1nc(CN(C)C(=O)N[C@H](C(=O)N[C@@H](Cc2ccccc2)C[C@H](O)[C@H](Cc2ccccc2)NC(=O)OCc2cncs2)C(C)C)cs1` [ritonavir], the “inhibitory activities in initial screening” value in [2] is “did not reveal inhibitory activities”.

Take `C[C@H]1[C@H](OC(=O)CCC(=O)O)O[C@@H]2O[C@@]3(C)CC[C@H]4[C@H](C)CC[C@@H]1[C@@]24OO3` [artesunate]: the “inhibitory activities in initial screening” value in [2] was “not detectable”.

With `NC12CC3CC(CC(C3)C1)C2` [amantadine], the “inhibitory activities in initial screening” value in series [2] is “did not reveal inhibitory activities”.

In the case of `Cc1cccc(C)c1OCC(=O)N[C@@H](Cc1ccccc1)[C@@H](O)C[C@H](Cc1ccccc1)NC(=O)[C@H](C(C)C)N1CCCNC1=O` [Lopinavir, lopinavir], in series [2], the antiviral activities result is listed as “detectable antiviral activities”, the antiviral activity entry was “showed antiviral activity” and the “inhibitory activities by neutralization tests” value is reported as “detectable inhibitory activities”. In series [4], this molecule yielded a CC50 of 32 µg/mL (≈ 50.9 µM). The 50% effective concentration (EC50) in series [5] fell in the range of 1 to 4 µg/mL (≈ 1.59 to 6.36 µM). Moreover, the “activity … compared with fRhK-4” value in series [7] is reported as “less active”. Also, the EC50 in series [9] came to 6 µg/mL (≈ 9.54 µM).

B1: Interferon-gamma: Interferon-gamma, reported in the literature (protein, UniProt P01579 24-161, looked up)
Interferon gamma: QDPYVKEAENLKKYFNAGHSDVADNGTLFLGILKNWKEESDRKIMQSQIVSFYFKLFKNFKDDQSIQKSVETIKEDMNVKFFNSNKKKRDDFEKLTNYSVTDLNVQRKAIHELIQVMAELSPAAKTGKRKRSQMLFRG
In the case of B1, the “antiviral activity against SARS coronavirus” value in series [15] is “not to possess antiviral activity”.
